Tests used:
[1] = 101 kPa, Liquid
[2] = xn = mol fraction of the nth substance listed; conditions: 101 kPa, Liquid

OCCO [1,2-ethanediol]
[1]
Conditions | mass density [kg/m3] | viscosity [mPa·s]
298.15 K | – | 16.8
303.15 K | 1105.8 | 13.4
308.15 K | – | 11.33

OCCO [1,2-ethanediol] + NCCN
[2], x2 = 0
Conditions | mass density [kg/m3] | viscosity [mPa·s]
298.15 K | – | 16.8
303.15 K | 1105.8 | 13.4
308.15 K | – | 11.33

NCCN [ethane-1,2-diamine]
[1]
Conditions | mass density [kg/m3] | viscosity [mPa·s]
298.15 K | 894.5 | 1.276
303.15 K | 890.8 | 1.211
308.15 K | 885.6 | 1.107

NCCN [ethane-1,2-diamine] + OCCO
[2]
Conditions | mass density, 298.15 K [kg/m3] | mass density, 303.15 K [kg/m3] | mass density, 308.15 K [kg/m3] | viscosity, 298.15 K [mPa·s] | viscosity, 303.15 K [mPa·s] | viscosity, 308.15 K [mPa·s]
x1 = 0.1027 | 1096.6 | 1089.8 | 1084.4 | 22.28 | 17.6 | 14.05
x1 = 0.1541 | 1086.6 | 1080.9 | 1073.8 | 25.54 | 20.56 | 16.93
x1 = 0.2052 | 1078.4 | 1072.4 | 1062.4 | 28.37 | 22.44 | 18.21
x1 = 0.2561 | 1068.5 | 1062.2 | 1053.8 | 30.73 | 23.15 | 19.28
x1 = 0.3066 | 1061.4 | 1053.5 | 1042.9 | 31.46 | 23.66 | 19.2
x1 = 0.3568 | 1051 | 1042.8 | 1033.8 | 30.7 | 22.85 | 18.5
x1 = 0.4078 | 1040.4 | 1034.8 | 1026.6 | 28.32 | 21.31 | 17
x1 = 0.508 | 1018.5 | 1013.9 | 1007.2 | 20.17 | 15.18 | 11.89
x1 = 0.5579 | 1006.6 | 1000.7 | 994.7 | 16.06 | 12.27 | 8.772
x1 = 0.6065 | 995.4 | 988.3 | 981.8 | 12.51 | 9.748 | 6.254
x1 = 0.6573 | 983.1 | 976.2 | 968.7 | 9.028 | 7.157 | 4.674
x1 = 0.7071 | 970.1 | 964.5 | 956.1 | 6.882 | 5.681 | 4.008
x1 = 0.756 | 957.3 | 951.7 | 944.4 | 5.154 | 4.177 | 3.547
x1 = 0.8051 | 946.2 | 938.8 | 931.7 | 3.787 | 3.154 | 2.683
x1 = 0.8542 | 933.4 | 924.9 | 917.5 | 3.199 | 2.552 | 2.128
x1 = 0.9003 | 919.1 | 913.4 | 907.2 | 2.273 | 1.92 | 1.713
x1 = 0.9438 | 908.8 | 903.4 | 897.5 | 1.8 | 1.561 | 1.422
x1 = 1 | 894.5 | 890.8 | 885.6 | 1.276 | 1.211 | 1.107

From the NIST ThermoML archive (doi:10.1021/je100290a)
